Measurements published in patent US20240207308A1, “METHOD FOR CULTURING DENDRITIC CELLS” (NANOFAENTECH CO., LTD., priority 2021, published 2024).

What was measured:
Type in all cases: cell-based, mouse
[1] = test system: spleen dendritic cells; test: Flow cytometry of CD86, MHC-II, CD80, CD40 on cultured spleen dendritic cells (self-activation); details: for increase in the expression of CD86: each at 800 μg/mL, 24 hours; for increase in the expression of CD86 / increase in CD86 expression by self-activation: 2×10^5/mL cells; for increase in CD86 expression by self-activation: different concentrations up to 800 μg/mL
Description: Mouse spleen dendritic cells were obtained by adding EDTA-BSS (Balanced Salt Solution) buffer and collagenase solution (DMEM containing 100 units of collagenase type IV, medium containing low glucose) to spleens of female C57BL/6 mice and cutting it with surgical scissors, mixing the same with 6 mL of collagenase treatment solution, and incubating the mixture for 30 minutes. The separated whole spleen tissue was filtered using a 70 μm cell strainer (Falcon), followed by centrifugation at 1800 rpm for 5 minutes thus to separate the cells. Red blood cells were removed by adding red blood cell lysis buffer (Sigma-Aldrich) to the cells and washed twice with RPMI-1640 medium containing 10% fetal bovine serum (FBS). Dendritic cells were reacted with CD11c^+ antibody-bound microbeads and isolated using CD11c Microbeads Ultrapure (MACS, Milteni Biotec, USA).
In FIG. 2, in order to determine whether self-activation occurs when primary dendritic cells isolated from the spleen are cultured, dendritic cells were dispensed in a 24-well plate at 2×10^5/mL, and after culturing for 6 hours in RPMI-1640 medium at 37° C. under 5% CO2 condition, the expression levels of MHC-II, CD86, CD80 and CD40 were analyzed on the surface of dendritic cells using a flow cytometer (MACSQuant VYB flow cytometer, Miltenyi Biotec). Results measured using a flow cytometer were analyzed using FlowJo v10 (Tree Star, Ashland). The expression levels of CD86, CD80 and CD40 were shown as the percentage of cells stained with CD11c, and the expression level of MHC-II was shown as mean fluorescence intensity (MFI), which is the mean fluorescence intensity of fluorescence.
In FIG. 7, when culturing spleen dendritic cells, each of the prepared peptides was added at a concentration of 200 μg/mL and the expression level of CD86 was measured 6 hours after culture. When each peptide was used alone for treatment, the expression of CD86 was not inhibited in spleen dendritic cells. […] Compared to when the cells were treated with these three kinds of peptides, the expression was not inhibited even when the two kinds of peptides were used together for treatment. * indicates statistical significance as P<0.05 or less compared to the P1, P1-2, and P2-1 conditions.
In FIG. 9, peptides containing P1 and P2 and amino acids of these peptides as well as P3 peptide in a combination of three types were added to the spleen dendritic cell culture medium, and after culturing for 6 hours, the expression level of CD86 was measured by flow cytometry.
In FIG. 24, different concentrations of LP1, LP2 and LP3 were added to reach a concentration of 800 μg/mL, and spleen dendritic cells (2×10^5/mL) were cultured for 6 hours or 24 hours, and the CD86 expression level was measured by flow cytometry (MACSQuant VYB flow cytometer, Miltenyi Biotec). The measured results were analyzed using FlowJo v10 (Tree Star, Ashland).
In FIG. 25, when spleen primary dendritic cells were dispensed at 2×10^5/mL and cultured for 24 hours while scrambled peptides of S-LP1, S-LP2 and S-LP3 were each added at a concentration of 800 μg/mL, the increase in the expression of CD86 was not inhibited. Further, the expression of CD86 was not reduced even when the scrambled peptides S-P1, S-P2 and S-P3 were simultaneously treated at a concentration of 600 μg/mL, respectively.

[2] = test system: spleen dendritic cells; test: Fluorescence staining of CD86 in spleen dendritic cells, confocal microscope; details: without LPS, linker peptides 400 μg/mL, 24 hours
Description: In FIG. 11, culturing spleen dendritic cells (2×10^5/mL) and the prepared peptides were added at a concentration of 200 μg/mL, respectively, and after 6 hours, the expression level of CD86 using a PE-conjugated anti-CD86 antibody (eBioscience) was measured through a confocal microscope after fluorescence staining. After culturing spleen primary dendritic cells for a certain period of time, intracellular CD86, F-actin and nuclear staining was implemented. Expression of actin was stained with FITC-conjugated phalloidin (eBioscience), and nuclear staining was conducted with Hoechst 33342 (Sigma-Aldrich). For this purpose, cells cultured in a 48-well plate were placed in a 4% paraformaldehyde fixing solution, and then fixed at room temperature for 20 minutes.
Then, after washing twice with phosphate buffered saline solution, it was permeabilized with 0.1% Triton X-100 (Sigma-Aldrich) solution at room temperature for 5 minutes and washed twice with phosphate buffered saline solution. In order to remove non-specific staining, after reacting with 0.2% bovine serum albumin (Sigma-Aldrich) solution at room temperature for 20 minutes, it was washed twice with phosphate buffered saline solution. After that, the anti-CD86 antibody and phalloidine were diluted in 0.2% bovine serum albumin solution at a ratio of 1:40 and reacted for 40 minutes, washed 3 times with Tris buffer, placed on a slide glass, followed by counter-staining with Hoechst 33342 solution for nuclear staining of cells. After sealing with a cover glass, the cells were observed using a confocal laser microscope (K1 nanoscope).
In FIG. 26, spleen dendritic cells (2×10^5/mL) were dispensed in a 48-well plate, and linker peptides were each added at a concentration of 400 μg/mL, followed by culturing for 24 hours. Activation of spleen dendritic cells was induced by adding 1 μg/mL of LPS to the culture medium. The cultured cells were placed in a 4% paraformaldehyde fixing solution and fixed at room temperature for 20 minutes. After fluorescence staining using PE-conjugated anti-CD86 antibody (eBioscience), it was measured with a confocal microscope (K1 Nanoscope, Korea). Intracellular actin expression was stained with FITC-conjugated phalloidin (eBioscience), and nuclear staining was conducted with Hoechst 33342 (Sigma-Aldrich). CD86 antibody and phalloidin were diluted 1:40 in 0.2% bovine serum albumin solution and used.

[3] = test system: spleen primary dendritic cells; test: ELISA of TNF-α / IL-12p40 secreted by cultured spleen primary dendritic cells; details: cells 2×10^5/mL, 24 hours, without LPS
Description: In FIG. 12, spleen primary dendritic cells were dispensed at 1×10^6/mL and cultured for 24 hours, and then a concentration of TNF-α secreted from these cells in the culture medium was measured. As a result, it was confirmed that the secretion increased in a time-dependent manner. The concentration of TNF-α was measured at 450 nm using an ELISA kit (R&D systems) and a microplate analyzer (Synergy H1, Biotek). However, when dendritic cells were dispensed at 2×10^5/mL, CD86 expression was increased but TNF-α secretion was not increased (results not presented). * indicates statistical significance as P<0.05 or less compared with 3 h.
In FIG. 13, spleen primary dendritic cells were dispensed at 1×10^6/mL and cultured for 24 hours. […] Furthermore, when P4, P5 and P6 peptides were added at a concentration of 200 μg/mL, respectively, the secretion of TNF-α was not inhibited.
Therefore, it could be seen that fibronectin has a disadvantage of inhibiting the activation by stimulants although can maintain the inactivation of spleen dendritic cells. * indicates statistical significance as P<0.05 or less compared to -LPS.
In FIG. 27, an ELISA kit (R&D systems) was used to measure the concentration of TNF-α secreted into the culture medium when spleen primary dendritic cells were dispensed at 2×10^5/mL and cultured for 24 hours. The concentration was determined at 450 nm by a microplate analyzer (Synergy H1, Biotek).

[4] = test system: spleen T cells from Balb/c mice; test: Mixed lymphocyte reaction: proliferation of CFSE-stained allogeneic T cells co-cultured with spleen dendritic cells; details: dendritic cells without peptide or fibronectin, activated with the stimulant, compared to control
Description: Since the main role of activated dendritic cells is to induce antigen-specific T-cell activation and proliferation according to the stimulatory properties, it was investigated whether self-activated dendrite cells after culturing and dendritic cells activated with LPS after culturing with addition of peptides can induce T cell proliferation by mixed lymphocyte reaction (MLR) test. The spleen dendritic cells isolated from C57B/L6 mice were self-activated for 24 hours, otherwise, when cultured with addition of peptides or fibronectin, the cells were treated with LPS and activated. Spleen T cells from Balb/c mice were isolated using a CD4^+/CD8^+ T cell isolation kit (Miltenyi Biotec, Bergisch-Gladbach, Germany) and MACS column (Miltenyi Biotec), followed by 10 μM CFSE staining (Molecular Probes; Thermo Fisher Scientific Inc., USA). The activated dendritic cells and CFSE-stained T cells were co-cultured at a ratio of 1:20 for 4 days, and the T cell proliferation level was measured as a percentage of cells with decreased CFSE. […] In FIG. 22, the amount of cytokines secreted after co-culture of spleen dendritic cells and T cells for 4 days was measured by ELISA method. […]

Substance | increase in the expression of CD86 [1] | CD86-expressing cells [2] | TNF-α secretion [3] | increase in CD86 expression by self-activation ([1]; 6 hours or 24 hours) | also measured
NRPHSGSDRGGSVDL (Scrambled linker peptide S-LP1) [scrambled linker peptide, control, reference compound] | not inhibited | – | – | – | –
Pro-His-Ser-Arg-Asn (PHSRN; Fibronectin motif P3) [Peptide P3] | – | – | – | – | expression level of CD86 ([1]; treated alone at 600 μg/mL, 6 hours): no inhibitory effect
NRPHSGGGSGGGSDRGGGGSVDL (Scrambled linker peptide S-LP3) [scrambled linker peptide, control, reference compound] | not inhibited | – | – | – | –
NRPHSGGGSDRGGGGSVDL (Scrambled linker peptide S-LP2) [scrambled linker peptide, control, reference compound] | not inhibited | – | – | – | –
laminin | – | – | – | – | expression level of CD86 or MHC-II (self-activation) ([1]; 200 μg/mL (laminin 200 μg/mL or higher), cultured 6 hours): self-activation was not inhibited; expression of MHC-II, CD80 and CD40 in addition to CD86 ([1]; cultured 6 hours or 24 hours, peptides 200 μg/mL each): no effect was observed
PHSRNGGGSRGDGGGSLDV (Linker peptide LP2) | – | almost not observed | hardly occurred | inhibited | –
PHSRNGGGSGGGSRGDGGGSLDV (Linker peptide LP3) | – | almost not observed | hardly occurred | inhibited | self-activation inhibitory effect compared among LP1, LP2 and LP3 ([1]; up to 800 μg/mL, 6 hours or 24 hours): greatest self-activation inhibitory effect
polyinosinic:polycytidylic acid [poly (I:C), reference compound] | – | – | – | – | proliferation of co-cultured spleen T cells [4]: slightly increased
PHSRNGSRGDGSLDV (Linker peptide LP1) | – | almost not observed | hardly occurred | inhibited | –
